The results in this text go back to US20160101090A1, “INHIBITION OF TRK KINASE MEDIATED TUMOR GROWTH AND DISEASE PROGRESSION” (DECIPHERA PHARMACEUTICALS, LLC, priority 2014, published 2016).

Read-outs that look alike come from different tables or passages of the source.

Experiment [1] deals with T1, NTRK1 (SEQ ID No. 1) recombinant kinase (Homo sapiens, UniProt P04629).
T1 construct: purchased Invitrogen
The experiment is described as follows: Recombinant NTRK1 kinase assay (ADP production coupled to pyruvate kinase/lactate dehydrogenase). Type of experiment: biochemical. The settings on record: recombinant NTRK1 4.7 nM, ATP 1 mM. An excerpt:
NTRK1 protein sequence used for screening (SEQ ID No. 1)

For experiment [2], the target named is T2, NTRK2 (SEQ ID No. 2) recombinant kinase (Homo sapiens, UniProt Q16620).
T2 construct: purchased Invitrogen
T2 sequence (Q16620 with tags, fused parts or gaps): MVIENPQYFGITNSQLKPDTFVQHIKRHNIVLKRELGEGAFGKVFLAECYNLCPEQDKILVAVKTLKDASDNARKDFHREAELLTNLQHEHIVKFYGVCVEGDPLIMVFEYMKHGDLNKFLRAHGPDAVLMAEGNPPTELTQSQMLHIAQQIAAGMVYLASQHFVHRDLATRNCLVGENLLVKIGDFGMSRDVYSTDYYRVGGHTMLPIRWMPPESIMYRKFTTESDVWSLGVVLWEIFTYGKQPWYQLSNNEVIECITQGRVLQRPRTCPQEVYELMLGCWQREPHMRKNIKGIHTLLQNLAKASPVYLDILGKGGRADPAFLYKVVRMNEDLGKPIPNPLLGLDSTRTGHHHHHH
The experiment in a line: Recombinant NTRK2 kinase assay (ADP production coupled to pyruvate kinase/lactate dehydrogenase). Type of experiment: biochemical. The settings on record: recombinant NTRK2 4 nM, ATP 1 mM. The source says:
NTRK2 protein sequence used for screening (SEQ ID No. 2)

The subject of experiment [3] is Transfected NIH-3T3 ETV6-NTRK3 cells. The experiment in a line: Transfected NIH-3T3 ETV6-NTRK3 cell proliferation assay (resazurin). In kind it is cell-based. The settings on record: Mus musculus, NIH3T3, 144 h; transfected NIH-3T3 cells, six days, 0.5% FBS; read-out: IC50, inhibition of proliferation, ETV6-NTRK3 transfected NIH-3T3. Here is the method:
Transfected NIH-3T3 ETV6-NTRK3 cells were obtained from the laboratory of James Fagin, MD (Memorial Sloan Kettering Cancer Center). Briefly, cells were grown in DMEM media supplemented with 10% characterized fetal bovine serum, 1% Penicillin/Streptomycin/L-glutamine solution (Life Technologies, Carlsbad, Calif.) and 1 μg/mL puromycin (Invitrogen, Carlsbad, Calif.) at 37 degrees Celsius, 5% CO2, and 95% humidity. Cells were allowed to expand until reaching approximately 75% confluency at which point they were subcultured or harvested for assay use.

Experiment [4] addresses T3, TPM3-NTRK1 (Homo sapiens, UniProt P04629).
T3 construct: chromosomal translocation of the kinase domain of NTRK1, NTRK2, or NTRK3 with a variety of N-terminal fusion partners; TPM3 N-terminal portion (fusion partner, P06753); endogenous in cells; host or cells: KM-12 (NCI DCTD Tumor Repository); also grown as subcutaneous xenograft in mice; the other entry of the earlier key: TPM3 (P06753, Tropomyosin alpha-3 chain)
The experiment is described as follows: KM-12 phospho-NTRK1 Western blot. To be noted: KM-12 cells, 4 h compound; read-out: IC50, inhibition of TPM3-NTRK1 phosphorylation. Type of experiment: cell-based. Here is the method: Briefly, cells were grown in RPMI 1640 media supplemented with 10% characterized fetal bovine serum and 1% Penicillin/Streptomycin/L-glutamine solution (Invitrogen, Carlsbad, Calif.) at 37 degrees Celsius, 5% CO2, and 95% humidity. Cells were allowed to expand until reaching 70-95% confluency at which point they were subcultured or harvested for assay use.
Two hundred fifty thousand cells in growth medium were added per well in a 24-well tissue-culture treated plate. The plate was incubated overnight at 37 degrees Celsius, 5% CO2, and 95% humidity. The next day, a serial dilution of test compound was added to the cells, and plates were incubated for 4 hours at 37 degrees Celsius, 5% CO2, and 95% humidity. Media was then aspirated, cells were washed with PBS, and then lysed. Cell lysates were separated by SDS-PAGE and transferred to PVDF. Phospho-NTRK1 (Tyr674/675) was detected using an antibody from Cell Signaling Technology (Beverly, Mass.), ECL Plus detection reagent (GE Healthcare, Piscataway, N.J.) and a Molecular Devices Storm 840 phosphorimager in fluorescence mode. Blots were stripped and probed for total NTRK1 using an antibody from Santa Cruz Biotech (Santa Cruz, Calif.). IC50 values were calculated using Prism software (Graphpad, San Diego, Calif.).
(A western blot detects proteins with antibodies after separation by electrophoresis.)

In experiment [5] the target is T4, NTRK2 (Homo sapiens, UniProt Q16620).
T4 construct: endogenous in cells; host or cells: SK-N-SH (ATCC HTB-11), differentiated with 10 µM all-trans retinoic acid
T4 sequence (Q16620 32-822): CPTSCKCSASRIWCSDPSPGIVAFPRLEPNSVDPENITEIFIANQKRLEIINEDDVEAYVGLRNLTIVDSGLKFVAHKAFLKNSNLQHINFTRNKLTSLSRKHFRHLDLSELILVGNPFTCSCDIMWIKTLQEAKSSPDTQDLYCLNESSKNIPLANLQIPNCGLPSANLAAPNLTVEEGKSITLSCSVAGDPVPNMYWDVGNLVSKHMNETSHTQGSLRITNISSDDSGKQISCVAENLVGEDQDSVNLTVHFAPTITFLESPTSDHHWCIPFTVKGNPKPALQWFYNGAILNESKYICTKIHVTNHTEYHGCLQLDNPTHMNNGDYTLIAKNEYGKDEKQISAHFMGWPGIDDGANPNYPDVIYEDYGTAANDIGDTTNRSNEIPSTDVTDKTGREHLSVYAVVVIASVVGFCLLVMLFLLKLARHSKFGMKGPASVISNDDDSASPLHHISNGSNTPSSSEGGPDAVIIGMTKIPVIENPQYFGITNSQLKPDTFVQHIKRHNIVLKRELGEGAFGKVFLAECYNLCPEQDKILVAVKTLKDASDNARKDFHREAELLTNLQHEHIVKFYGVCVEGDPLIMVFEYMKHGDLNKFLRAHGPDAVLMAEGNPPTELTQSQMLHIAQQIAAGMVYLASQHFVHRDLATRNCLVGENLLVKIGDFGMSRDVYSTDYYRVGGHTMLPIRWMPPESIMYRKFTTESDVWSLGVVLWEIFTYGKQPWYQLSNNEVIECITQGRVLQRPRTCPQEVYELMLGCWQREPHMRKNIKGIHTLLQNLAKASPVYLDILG
The experiment in a line: SK-N-SH (retinoic acid differentiated) phospho-NTRK2 Western blot. The settings on record: SK-N-SH cells differentiated with all-trans retinoic acid, BDNF 100 ng/mL stimulated; read-out: IC50, inhibition of NTRK2 phosphorylation. In kind it is cell-based. The method, then:
SK-N-SH cells (catalog #HTB-11) were obtained from the American Type Culture Collection (ATCC; Manassas, Va.). Briefly, SK-N-SH cells were grown in MEM medium supplemented with 10% characterized fetal bovine serum and 1% Penicillin-Streptomycin-L-glutamine solution (Invitrogen, Carlsbad, Calif.) at 37 degrees Celsius, 5% CO2, and 95% humidity. Cells were allowed to expand until reaching 70-95% confluency at which point they were subcultured. To induce expression of NTRK2, cells were grown in growth medium containing 10 μM all-trans retinoic acid for ten to fourteen days prior to harvesting cells for assay use.
(§1) Two hundred fifty thousand cells differentiated with 10 μM all-trans retinoic acid in growth medium were added per well in a 12-well tissue-culture treated plate. The plate was incubated overnight at 37 degrees Celsius, 5% CO2, and 95% humidity. The next day, growth media was aspirated, cells were washed with serum-free MEM media, and one milliliter serum-free MEM media was added per well. […] Phospho-NTRK2 (Tyr706/707) was detected using an antibody from Cell Signaling Technology (Beverly, Mass.), ECL Plus detection reagent (GE Healthcare, Piscataway, N.J.) and a Molecular Devices Storm 840 phosphorimager in fluorescence mode. […] IC50 values were calculated using Prism software (Graphpad, San Diego, Calif.).

The subject of experiment [6] is KM-12 TPM3-NTRK1 xenograft. The experiment in a line: KM-12 TPM3-NTRK1 xenograft model, single-agent efficacy. Type of experiment: in vivo, Mice. To be noted: PO, BID. The source says:
Mice were implanted subcutaneously and treatment began on Day 5. Treatments ended on Day 25 after three weeks of treatment.

Experiment [7] has as its target T5, NTRK1 kinase phosphorylation (TPM3-NTRK1) (Homo sapiens, UniProt P04629).
T5 construct: chromosomal translocation of the kinase domain of NTRK1, NTRK2, or NTRK3 with a variety of N-terminal fusion partners; TPM3 N-terminal portion (fusion partner, P06753); endogenous in cells; host or cells: KM-12 (NCI DCTD Tumor Repository); also grown as subcutaneous xenograft in mice; the other entry of the earlier key: TPM3 (P06753, Tropomyosin alpha-3 chain)
The experiment is described as follows: KM-12 TPM3-NTRK1 xenograft model, inhibition of NTRK1 phosphorylation in tumors after a single dose. In kind it is in vivo, Mice. To be noted: KM12, mouse, po; for inhibition at 15 mg/kg: single dose 15 mg/kg PO; for inhibition at 7.5 mg/kg: single oral dose 7.5 mg/kg. The source says:
Mice were implanted subcutaneously and a single treatment was given on Day 8. At time points after the single oral dose, tumors were resected, frozen, pulverized, and then lysed. Lysates were separated by SDS-PAGE and protein was transferred to PVDF. Phospho-NTRK1 (Tyr674/675) was detected using an antibody from Cell Signaling Technology (Beverly, Mass.), ECL Plus detection reagent (GE Healthcare, Piscataway, N.J.) and a Molecular Devices Storm 840 phosphorimager in fluorescence mode. Blots were stripped and probed for total NTRK1 using an antibody from Santa Cruz Biotech (Santa Cruz, Calif.).

Experiment [8] relates to NIH-3T3 ETV6-NTRK3 xenograft. The experiment is described as follows: Transfected NIH-3T3 ETV6-NTRK3 xenograft model, single-agent efficacy. In kind it is in vivo, Mice. The settings on record: 15 mg/kg, PO, BID, p<0.05. An excerpt: Mice were implanted subcutaneously and treatment began on Day 4. Treatments ended on Day 24 after three weeks of treatment.
Experiment [9] deals with NTRK3 kinase phosphorylation (ETV6-NTRK3). The experiment in a line: Transfected NIH-3T3 ETV6-NTRK3 xenograft model, inhibition of NTRK3 phosphorylation in tumors after a single dose. Type of experiment: in vivo, Mice. The settings on record: single dose 15 mg/kg PO. The source says: Mice were implanted subcutaneously and a single treatment was given on Day 6. At time points after the single oral doses, tumors were resected, frozen, pulverized, and then lysed. Lysates were separated by SDS-PAGE and protein was transferred to PVDF. Phospho-NTRK3 (Tyr516) was detected using an antibody from Cell Signaling Technology (Beverly, Mass.), ECL Plus detection reagent (GE Healthcare, Piscataway, N.J.) and a Molecular Devices Storm 840 phosphorimager in fluorescence mode.

The target of experiment [10] is T6, NTRK1 (Homo sapiens, UniProt P04629). The experiment is described as follows: K562 phospho-NTRK1 Western blot. In kind it is cell-based. Also noted: endogenous in cells. To be noted: K562 cells, 4 h compound, NGF 100 ng/mL stimulated; read-out: IC50, inhibition of NTRK1 phosphorylation. Here is the method: K562 cells (catalog #CCL-243) were obtained from the American Type Culture Collection (ATCC; Manassas, Va.). Briefly, K562 cells were grown in suspension in IMDM medium supplemented with 10% characterized fetal bovine serum and 1% Penicillin-Streptomycin-L-glutamine solution (Invitrogen, Carlsbad, Calif.) at 37 degrees Celsius, 5% CO2, and 95% humidity. Cells were allowed to expand until reaching one to three million cells per milliliter at which point they were subcultured or harvested for assay use.
T6 sequence (P04629 33-796): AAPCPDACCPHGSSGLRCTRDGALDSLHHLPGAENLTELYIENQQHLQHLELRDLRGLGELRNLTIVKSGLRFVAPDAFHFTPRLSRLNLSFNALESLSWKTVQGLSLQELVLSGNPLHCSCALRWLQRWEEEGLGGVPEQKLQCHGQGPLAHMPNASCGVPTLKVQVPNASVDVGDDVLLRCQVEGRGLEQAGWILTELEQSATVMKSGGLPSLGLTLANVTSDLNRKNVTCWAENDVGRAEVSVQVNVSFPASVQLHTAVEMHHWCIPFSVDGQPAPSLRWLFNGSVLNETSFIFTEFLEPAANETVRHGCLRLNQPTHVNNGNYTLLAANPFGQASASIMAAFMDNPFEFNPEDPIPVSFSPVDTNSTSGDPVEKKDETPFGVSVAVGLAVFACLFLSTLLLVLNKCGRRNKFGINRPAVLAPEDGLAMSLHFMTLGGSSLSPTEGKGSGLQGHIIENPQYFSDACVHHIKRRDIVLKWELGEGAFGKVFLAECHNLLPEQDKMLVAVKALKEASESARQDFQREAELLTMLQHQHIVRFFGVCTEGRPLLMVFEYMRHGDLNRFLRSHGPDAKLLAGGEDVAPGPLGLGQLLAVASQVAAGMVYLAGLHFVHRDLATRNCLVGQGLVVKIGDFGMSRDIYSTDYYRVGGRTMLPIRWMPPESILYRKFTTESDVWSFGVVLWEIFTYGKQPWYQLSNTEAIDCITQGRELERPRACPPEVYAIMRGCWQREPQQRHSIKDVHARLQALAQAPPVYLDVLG
One million cells in serum-free IMDM media were added per well in a 24-well tissue-culture treated plate. A serial dilution of test compound was added to cells and plates were incubated for 4 hours at 37 degrees Celsius, 5% CO2, and 95% humidity. Cells were then stimulated for 10 minutes with 100 ng/mL NGF (R&D Systems, Minneapolis, Minn.). Cells pelleted by centrifugation, washed with PBS, then lysed. Cell lysates were separated by SDS-PAGE and transferred to PVDF. Phospho-NTRK1 (Tyr674/675) was detected using an antibody from Cell Signaling Technology (Beverly, Mass.), ECL Plus detection reagent (GE Healthcare, Piscataway, N.J.) and a Molecular Devices Storm 840 phosphorimager in fluorescence mode. Blots were stripped and probed for total NTRK1 using an antibody from Santa Cruz Biotech (Santa Cruz, Calif.). IC50 values were calculated using Prism software (Graphpad, San Diego, Calif.).

For experiment [11], the target named is T6, NTRK1. The experiment in a line: SK-N-SH phospho-NTRK1 Western blot. The settings on record: SK-N-SH cells, 4 h compound, NGF 100 ng/mL stimulated; read-out: IC50, inhibition of NTRK1 phosphorylation. Also on record: endogenous in cells; host or cells: SK-N-SH (ATCC HTB-11). In kind it is cell-based. Here is the method: SK-N-SH cells (catalog #HTB-11) were obtained from the American Type Culture Collection (ATCC; Manassas, Va.). Briefly, SK-N-SH cells were grown in MEM medium supplemented with 10% characterized fetal bovine serum and 1% Penicillin-Streptomycin-L-glutamine solution (Invitrogen, Carlsbad, Calif.) at 37 degrees Celsius, 5% CO2, and 95% humidity. Cells were allowed to expand until reaching 70-95% confluency at which point they were subcultured or harvested for assay use.
as §1, with “cells” for “cells differentiated with 10 μM all-trans retinoic acid”, “24-well” for “12-well”, “well. A serial dilution of test compound was added to the cells, and plates were incubated for 4 hours at 37 degrees Celsius, 5% CO2, and 95% humidity. Cells were then stimulated for 10 minutes with 100 ng/mL NGF (R&D Systems, Minneapolis, Minn.).” for “well.”, “Phospho-NTRK1 (Tyr674/675)” for “Phospho-NTRK2 (Tyr706/707)”

Where [12] appears, read: 3.75 mg/kg, not statistically significant.

T5 sequence (P04629 with tags, fused parts or gaps): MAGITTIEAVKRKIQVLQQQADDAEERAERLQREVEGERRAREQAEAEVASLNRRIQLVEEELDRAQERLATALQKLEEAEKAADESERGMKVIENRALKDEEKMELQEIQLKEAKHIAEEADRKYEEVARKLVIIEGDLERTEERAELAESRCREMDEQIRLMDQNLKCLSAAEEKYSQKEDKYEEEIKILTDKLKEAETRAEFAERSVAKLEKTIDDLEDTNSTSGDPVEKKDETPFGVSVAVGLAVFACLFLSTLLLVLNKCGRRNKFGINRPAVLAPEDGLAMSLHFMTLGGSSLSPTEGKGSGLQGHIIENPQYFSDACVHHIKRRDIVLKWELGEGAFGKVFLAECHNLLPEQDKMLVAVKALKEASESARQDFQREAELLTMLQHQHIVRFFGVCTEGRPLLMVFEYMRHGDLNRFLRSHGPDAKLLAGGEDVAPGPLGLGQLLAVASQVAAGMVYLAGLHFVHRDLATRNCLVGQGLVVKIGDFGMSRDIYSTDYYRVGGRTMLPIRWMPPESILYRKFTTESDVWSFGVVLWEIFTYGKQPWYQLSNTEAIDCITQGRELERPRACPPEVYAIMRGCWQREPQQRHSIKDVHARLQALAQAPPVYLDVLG
T1 sequence (P04629 with tags, fused parts or gaps): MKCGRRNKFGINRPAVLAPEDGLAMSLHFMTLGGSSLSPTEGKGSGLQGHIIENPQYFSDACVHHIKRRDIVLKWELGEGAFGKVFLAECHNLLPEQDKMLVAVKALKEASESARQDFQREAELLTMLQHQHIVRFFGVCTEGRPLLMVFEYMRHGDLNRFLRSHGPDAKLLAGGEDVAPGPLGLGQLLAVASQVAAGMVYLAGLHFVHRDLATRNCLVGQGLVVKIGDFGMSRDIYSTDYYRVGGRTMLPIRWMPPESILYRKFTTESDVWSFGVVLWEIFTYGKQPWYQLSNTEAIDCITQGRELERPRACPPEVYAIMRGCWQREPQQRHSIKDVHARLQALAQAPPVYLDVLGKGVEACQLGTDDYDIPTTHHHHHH

As to `O=C(Nc1cc(Oc2cc(F)c(NC(=O)C3(C(=O)Nc4ccc(F)cc4)CC3)cc2F)ccn1)C1CC1` [Compound 1, N-(4-(2-(cyclopropanecarboxamido)pyridin-4-yloxy)-2,5-difluorophenyl)-N′-(4)cyclopropane-1,1-dicarboxamide], the IC50 in [1] came out at 0.71 nM; in experiment [2] it was 4.6 nM; in experiment [3] it was 0.44 nM; in experiment [4] it was 1.4 nM; in experiment [5], 0.24 nM; in experiment [10], 0.69 nM. For the same molecule, in experiment [11], the IC50 was 1 nM. Also, the “Day 11 % T/C” value in experiment [6] (setting [12]) is listed as 39%; in experiment [6] (7.5 mg/kg, p<0.05) it was 22%; in [6] (15 mg/kg, p<0.05), 16%. The tumor growth delay in experiment [6] (setting [12]) amounted to 4.5 days; in experiment [6] (7.5 mg/kg, Day 5 to Day 25, p<0.05), 11.4 days; in experiment [6] (15 mg/kg, Day 5 to Day 25, p<0.05), 17.8 days; in [8] (Day 4 to Day 24), 26.5 days. Also, the inhibition at 15 mg/kg in experiment [7] (24 hours post dose, read-out: inhibition of NTRK1 phosphorylation) is 79%; in experiment [7] (through 18 hours post dose, read-out: inhibition of NTRK1 kinase phosphorylation in vivo), about 95%. Also, the inhibition at 7.5 mg/kg in [7] (12 hours post dose) is 66%; in [7] (18 hours post dose), 74%; in experiment [7] (24 hours post dose), 59%; in [7] (for 8 hours), over 95%. Further, in experiment [8], the “Day 8 % T/C” value amounted to 6%. The “inhibition of NTRK3 phosphorylation” value in experiment [9] (18 hours post dose) is listed as 63%; in experiment [9] (24 hours post dose), 23%. The “inhibition of NTRK3 kinase phosphorylation in vivo” value in experiment [9] (through 12 hours post dose) is recorded as over 95%.

What is called inhibition is the relative decrease from the control value, in per cent.
